The text below walks through data of article doi:10.1101/2024.12.05.627101v1 (biorxiv, 2024).

SMILES strings stand for the structures.

Experiment [1] has as its target T1, human mGlu5 (hmGlu5) (Homo sapiens, UniProt P41594). Briefly: cell-based. Also on record: species or system HEK293A. The following applies: HEK293-A, read-out: iCa2+ human mGlu5 Emax.
The target of experiment [2] is T1, human mGlu5 (hmGlu5). Briefly: iCa2+ mobilisation. In kind it is cell-based.
Experiment [3] addresses T1, human mGlu5 (hmGlu5). Briefly: whole-cell [3H]methoxy-PEPy inhibition binding. Type of experiment: cell-based.
The target in experiment [4] is T1, human mGlu5 (hmGlu5). Briefly: whole-cell [3H]methoxy-PEPy inhibition binding. Type of experiment: cell-based. This is another data set of the same source.
Experiment [5] addresses T1, human mGlu5 (hmGlu5). Briefly: IP1 accumulation. In kind it is cell-based.
Experiment [6] addresses T1, human mGlu5 (hmGlu5). Briefly: IP1 accumulation. In kind it is cell-based. The source holds these as a separate data set.
For experiment [7], the target named is T1, human mGlu5 (hmGlu5). In words: whole-cell saturation radioligand binding. Type of experiment: cell-based.

T1 sequence (P41594 21-1180 isoform P41594-2): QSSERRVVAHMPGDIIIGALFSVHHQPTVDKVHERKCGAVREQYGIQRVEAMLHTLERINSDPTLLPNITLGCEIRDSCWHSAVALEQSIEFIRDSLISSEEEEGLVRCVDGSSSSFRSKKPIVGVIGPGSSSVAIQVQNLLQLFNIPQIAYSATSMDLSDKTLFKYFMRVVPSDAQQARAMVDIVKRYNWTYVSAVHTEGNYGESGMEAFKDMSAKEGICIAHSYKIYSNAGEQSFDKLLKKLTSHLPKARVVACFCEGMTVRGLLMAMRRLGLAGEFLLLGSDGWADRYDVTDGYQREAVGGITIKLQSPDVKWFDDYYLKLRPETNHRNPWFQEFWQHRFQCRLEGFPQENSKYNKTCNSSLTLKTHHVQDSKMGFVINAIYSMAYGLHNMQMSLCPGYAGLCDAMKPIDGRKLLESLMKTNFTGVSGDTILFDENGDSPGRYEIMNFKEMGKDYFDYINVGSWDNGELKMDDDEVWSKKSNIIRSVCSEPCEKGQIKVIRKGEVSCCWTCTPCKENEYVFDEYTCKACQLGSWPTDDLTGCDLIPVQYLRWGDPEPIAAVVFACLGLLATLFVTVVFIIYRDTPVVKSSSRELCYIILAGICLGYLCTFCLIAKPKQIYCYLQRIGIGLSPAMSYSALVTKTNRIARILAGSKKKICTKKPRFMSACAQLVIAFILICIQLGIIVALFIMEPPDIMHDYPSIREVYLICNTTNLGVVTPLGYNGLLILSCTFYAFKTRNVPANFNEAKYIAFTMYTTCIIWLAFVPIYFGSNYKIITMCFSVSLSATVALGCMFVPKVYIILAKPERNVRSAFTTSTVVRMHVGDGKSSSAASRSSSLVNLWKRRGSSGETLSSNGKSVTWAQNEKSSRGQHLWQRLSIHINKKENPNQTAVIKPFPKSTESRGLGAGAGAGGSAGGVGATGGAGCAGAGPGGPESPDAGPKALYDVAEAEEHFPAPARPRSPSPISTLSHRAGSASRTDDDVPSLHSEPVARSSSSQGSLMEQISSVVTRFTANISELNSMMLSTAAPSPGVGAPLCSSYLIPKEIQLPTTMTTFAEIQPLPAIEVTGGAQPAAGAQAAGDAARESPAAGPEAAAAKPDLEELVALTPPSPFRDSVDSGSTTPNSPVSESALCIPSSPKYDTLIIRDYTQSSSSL

In the case of `N[C@H](C(=O)O)c1cc(O)cc(O)c1` [DHPG, (S)-3,5-dihydroxyphenylglycine], on human mGlu5 (hmGlu5) [1], the Emax amounted to 80.3 ± 2.5%. The compound also showed an EC50 on human mGlu5 (hmGlu5) [2] of 1100 nM. With `O=C(COCc1ccc(F)cc1)N1CCN(c2ccc(F)cc2F)CC1` [DPFE, 1-(4-(2,4-difluorophenyl)piperazin-1-yl)-2-((4-fluorobenzyl)oxy)ethanone], the affinity on human mGlu5 (hmGlu5) [3] corresponds to a Ki of 7.41 µM.

On human mGlu5 (hmGlu5) [4], `CCCCOc1ccc(C(=O)Nc2ccc(F)cc2F)cc1` [VU0357121, 4-butoxy-N-(2,4-difluorophenyl)benzamide] showed a Kd of 537 nM. In the case of `N#Cc1cc(F)cc(C(=O)Nc2cccc(Cl)c2F)c1` [VU0366248, N-(3-chloro-2-fluorophenyl)-3-cyano-5-fluorobenzamide], the IC50 at human mGlu5 (hmGlu5) [5] is 115 nM. At human mGlu5 (hmGlu5) [4], the Kd is 224 nM. On human mGlu5 (hmGlu5) [3], `O=C(c1ccc(F)cc1)N1CCc2nc(COc3ccccc3)oc2C1` [VU0409551, (4-fluorophenyl)(2-(phenoxymethyl)-6,7-dihydrooxazolo[5,4-c]pyridin-5(4H)-yl)methanone] had a Ki of 1.41 µM. The EC50 at human mGlu5 (hmGlu5) [6] was 661 nM. On to `C[C@@H](NC(=O)c1ccc(C#Cc2cccc(F)c2)cn1)C(C)(C)O` [VU0424465, (R)-5-((3-fluorophenyl)ethynyl)-N-(3-hydroxy-3-methylbutan-2-yl)picolinamide], for which the Emax at human mGlu5 (hmGlu5) [1] was determined as 69.5 ± 4.5%. Also, at human mGlu5 (hmGlu5) [2], the EC50 is 275 nM. Moreover, on human mGlu5 (hmGlu5) [4], the Kd was 35.5 nM. As to `COc1cncc(C#Cc2ccccn2)c1` [[3H]methoxy-PEPy], binding at human mGlu5 (hmGlu5) [7] was put at a Kd of 4.57 nM. `CN1CC(=O)N=C1NC(=O)Nc1cccc(Cl)c1` [fenobam, N-(3-chlorophenyl)-3-[(2e)-1-methyl-4-oxoimidazo-lidin-2-ylidene]urea] gave an IC50 against human mGlu5 (hmGlu5) [5] of 55 nM. This compound had a Kd on human mGlu5 (hmGlu5) [4] of 81.3 nM. On to `N[C@@H](CCC(=O)O)C(=O)O` [glutamate], for which, at human mGlu5 (hmGlu5) [1], the Emax was found to be 103 ± 3.9%.
